The record followed here is ChEMBL document CHEMBL4613244, “Absolute Configuration and Corrected NMR Assignment of 17-Hydroxycyclooctatin, a Fused 5-8-5 Tricyclic Diterpene” (J Nat Prod, 2020).

Calls of active or inactive are those of the source. The rule behind the calls is not given here.

By IC50 is commonly meant the concentration that inhibits the measured activity by half.

What all share (format): functional, cell-based
Assay [1] relates to MCF7. Kind of assay: Antiproliferative activity against human MCF7 cells assessed as reduction in cell viability after 24 hrs by MTT assay. The settings on record: MCF7, 24 h. (In general: Formazan colour is commonly taken as a measure of viable cells.)
Assay [2] relates to MCF7. Kind of assay: Anti-estrogenic activity in human MCF7 cells assessed as reduction in 17beta-estradiol-induced cell viability at 100 to 200 uM after 24 hrs by MTT assay.
Assay [3] concerns MCF7. The experiment in a line: Anti-estrogenic activity in human MCF7 cells assessed as reduction in 17beta-estradiol-induced cell viability at 100 nM after 24 hrs by MTT assay.

As to `C[C@H](CO)[C@H]1CC[C@]2(C)C[C@@H]3[C@H](CO)C[C@@H](O)[C@H]3[C@@](C)(O)C/C=C/12`, the IC50 in the assay on MCF7 [1] stood at 567 µM. The result in the assay on MCF7 [2] was Active. As for `C[C@]12CC[C@@H]3c4ccc(O)cc4C[C@@H](CCCCCCCCC[S+]([O-])CCCC(F)(F)C(F)(F)F)[C@H]3[C@@H]1CC[C@@H]2O` (stereo partly drawn), the outcome with MCF7 [3] was Active.
